The subject of one data set is yellow fever virus (YFV). Nature of the data set: microbe, parasite or virus in culture. The following applies: for EC50: Yellow fever virus, Vero B, 168 h, read-out: Yellow fever EC50. Format: cell-based.
The nature of another data set: in vitro. The following applies: chlorocebus sabaeus.
The next data set deals with dengue virus (DENV). Nature of the data set: microbe, parasite or virus in culture. Format: cell-based. The following applies: for EC50: Dengue virus, Vero B, 168 h, read-out: Dengue EC50.

As a reminder, the EC50 is the concentration that produces a half-maximal response.

Turning to `O=C(NCc1ccccc1-c1ccncc1)c1nccnc1C(=O)Nc1ccc(F)cc1` [20f, N^2-(4-fluorophenyl)-N^3-(2-(pyridin-4-yl)benzyl) pyrazine-2,3-dicarboxamide], in the data set on yellow fever virus (YFV), the “fold decrease in activity against YFV” value is 6 fold and the concentration giving a half-maximal response (EC50) turned out to be 21.3 µM. For the same compound, the CC50 in “in vitro” (Dengue CC50) is more than 118 µM. Also, the CC50 in the data set “in vitro” (Yellow fever CC50) is more than 127 µM. In the data set on dengue virus (DENV), the “fold decrease in activity against DENV” value is 20 fold and the EC50 came to 40.7 µM.

Regarding `Cc1ccc(NC(=O)c2nccnc2C(=O)Nc2ccc(F)cc2)c(-c2ccncc2)c1` [20g, N^2-(4-fluorophenyl)-N^3-(4-methyl-2-(pyridin-4-yl)phenyl)pyrazine-2,3-dicarbox amide], the figures for the EC50 in the data set on yellow fever virus (YFV) and with dengue virus (DENV) were 48.4 µM and more than 117 µM, respectively. Further, the CC50 was more than 117 µM in “in vitro” (Dengue CC50) and more than 125 µM in the data set “in vitro” (Yellow fever CC50).

As to `Cc1ccc(NC(=O)c2nccnc2C(=O)NCc2ccc(-c3ccncc3)cc2)cc1` [20h, N^2-(4-(pyridin-4-yl)benzyl)-N^3-(p-tolyl) pyrazine-2,3-dicarboxamide], the results for the EC50 in the data set with yellow fever virus (YFV) and in the data set on dengue virus (DENV) were 36.8 µM and 16.6 µM, respectively. The CC50 at 168 h in “in vitro” (Dengue CC50) worked out at 74.7 µM. The same compound had a CC50 in “in vitro” (Yellow fever CC50) of more than 110 µM.

As to `Cc1ccc(NC(=O)c2nccnc2C(=O)Nc2ccc(C)cc2-c2cccnc2)cc1` [20i, N^2-(4-methyl-2-(pyridin-3-yl)phenyl)-N^3-(p-tolyl) pyrazine-2,3-dicarboxamide], the 50% effective concentration (EC50) in the data set with yellow fever virus (YFV) was 18.4 µM; in the data set on dengue virus (DENV), 10.6 µM. Besides, the CC50 at 168 h stood at 47.5 µM in “in vitro” (Dengue CC50) and 75.5 µM in “in vitro” (Yellow fever CC50).

As to `Cc1ccc(NC(=O)c2nccnc2C(=O)NCc2ccc(-c3cccnc3)cc2)cc1` [20j, N^2-(4-(pyridin-3-yl)benzyl)-N^3-(p-tolyl) pyrazine-2,3-dicarboxamide], the values for the EC50 with yellow fever virus (YFV) and in the data set on dengue virus (DENV) were 73.1 µM and 6.75 µM, respectively. Moreover, the CC50 in “in vitro” (Dengue CC50) was more than 116 µM; in the data set “in vitro” (Yellow fever CC50), more than 124 µM.

Regarding `Cc1ccc(NC(=O)c2nccnc2C(=O)Nc2ccccc2-c2ccncc2)cc1` [20k, N^2-(2-(pyridin-4-yl)phenyl)-N^3-(p-tolyl) pyrazine-2,3-dicarboxamide], the EC50 was 12.5 µM with yellow fever virus (YFV) and 4.71 µM in the data set on dengue virus (DENV). The CC50 in the data set “in vitro” (Dengue CC50) is more than 122 µM; in the data set “in vitro” (Yellow fever CC50) it was more than 125 µM.

For `Cc1ccc(NC(=O)c2nccnc2C(=O)Nc2ccccc2-c2cccnc2)cc1` [20l, N^2-(2-(pyridin-3-yl)phenyl)-N^3-(p-tolyl) pyrazine-2,3-dicarboxamide], the results for the half-maximal effective concentration (EC50) in the data set on yellow fever virus (YFV) and with dengue virus (DENV) were more than 122 µM and 14.6 µM, respectively. Besides, the CC50 in “in vitro” (Dengue CC50) was more than 128 µM; in “in vitro” (Yellow fever CC50), more than 122 µM.

Consider `Cc1ccc(NC(=O)c2nccnc2C(=O)Nc2ccc(C)cc2-c2ccncc2)cc1` [20n, N^2-(4-methyl-2-(pyridin-4-yl)phenyl)-N^3-(p-tolyl) pyrazine-2,3-dicarboxamide], for which the 50% effective concentration (EC50) in the data set on yellow fever virus (YFV) was 30.9 µM; in the data set on dengue virus (DENV), 11.9 µM. Further, the CC50 in “in vitro” (Dengue CC50) is more than 119 µM; in the data set “in vitro” (Yellow fever CC50), more than 118 µM.

The values above are taken from paper PMC4237513 (European Journal of Medicinal Chemistry, 2014).
